IC50 data for eleven compounds are collected here from patent US11564923B2, “Compounds and pharmaceutical compositions thereof for the treatment of inflammatory disorders” (Galapagos NV, priority 2017, dated 2023).

The structures appear in SMILES notation. Where a name gives a salt, the structure may show the parent alone.

Assay [1] has as its target T1, Recombinant human JAK2 (catalytic domain, amino acids 808-1132) (Homo sapiens, UniProt O60674).
T1 construct: catalytic domain, amino acids 808-1132
Description: JAK2 inhibition assay. Also: 0.7 µM ATP. The settings on record: read-out: JAK2 potency IC50. Format: biochemical. How it is done: After 60 min at room temperature, reactions are stopped by adding 20 μL/well of detection mixture (1× detection buffer (Perkin Elmer, catalog number CR97-100) with 0.5 nM Europium-anti-phosphotyrosine (PT66) (Perkin Elmer, catalog number AD0068/AD0069) and 10 mM EDTA). […] Kinase activity is calculated by subtracting the ratio obtained in the presence of a positive control inhibitor (1 μM staurosporine) from the ratio obtained in the presence of vehicle. The ability of a test compound to inhibit this activity (or percentage inhibition) is determined as:
(§1) [formula] wherein Fluorescent ratio test compound=ratio RFU665/RFU615*1000 determined for sample with test compound present Fluorescent ratio control=ratio RFU665/RFU615*1000 determined for sample with positive control inhibitor Fluorescent ratio vehicle=ratio RFU665/RFU615*1000 determined in the presence of vehicle
Dose dilution series are prepared for compound enabling the testing of dose-response effects in the JAK2 assay and the calculation of the IC50 for the compound. Each compound is routinely tested at concentration of 20 μM followed by a 1/5 serial dilution, 10 points in a final concentration of 1% DMSO. […] The data are expressed as the average IC50 from the assays.

The target in assay [2] is T2, Recombinant human TYK2 catalytic domain (amino acids 871-1187) (Homo sapiens, UniProt P29597).
T2 construct: catalytic domain (amino acids 871-1187)
T2 sequence (P29597 871-1187): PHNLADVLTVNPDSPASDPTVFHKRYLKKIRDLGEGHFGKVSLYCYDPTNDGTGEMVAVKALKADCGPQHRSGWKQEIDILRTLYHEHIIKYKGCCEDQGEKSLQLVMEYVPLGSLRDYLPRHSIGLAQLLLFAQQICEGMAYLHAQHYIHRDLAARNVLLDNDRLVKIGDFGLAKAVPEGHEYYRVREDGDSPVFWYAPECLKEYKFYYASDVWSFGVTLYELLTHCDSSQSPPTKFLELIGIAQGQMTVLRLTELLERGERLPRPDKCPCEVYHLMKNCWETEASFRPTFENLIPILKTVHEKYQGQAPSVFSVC
Description: TYK2 radioactive assay polyGT substrate. Also: 0.1 µM ATP. Format: biochemical. The gist of the method:
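Reaction at 30° C. for 120 min, ended with 150 mM phosphoric acid, washed, counted; percent inhibition scaled between vehicle and 10 μM staurosporine cpm.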

Assay [3] has as its target Recombinant human JAK3 catalytic domain (amino acids 781-1124) (Homo sapiens, UniProt P52333). Nature of the assay: JAK3 inhibition assay. Format: biochemical. As to the method: After 45 min at 30° C., reactions are stopped by adding 25 μL/well of 150 mM phosphoric acid. […] Plates are washed 6 times with 300 μL per well of a 75 mM phosphoric acid solution and the bottom of the plates is sealed. […] Kinase activity is calculated by subtracting counts per min (cpm) obtained in the presence of a positive control inhibitor (10 μM staurosporine) from cpm obtained in the presence of vehicle. The ability of a test compound to inhibit this activity (or percentage inhibition) is determined as: […]
cpm test compound=cpm determined for sample with test compound present cpm control=cpm determined for sample with positive control inhibitor cpm vehicle=cpm determined in the presence of vehicle
Dose dilution series were prepared for the compounds enabling the testing of dose-response effects in the JAK3 assay and the calculation of the IC50 for each compound. Each compound is routinely tested at concentration of 20 μM followed by a 1/5 serial dilution, 10 points in a final concentration of 1% DMSO.

The target of assay [4] is T3, Recombinant human JAK1 (catalytic domain, amino acids 866-1154) (Homo sapiens, UniProt P23458).
T3 construct: catalytic domain, amino acids 866-1154
Nature of the assay: JAK1 inhibition assay. Format: biochemical. The settings on record: read-out: JAK1 potency IC50. As to the method:
After 60 min at room temperature, reactions are stopped by adding 20 μL/well of detection mixture (1× detection buffer (Perkin Elmer, catalog number CR97-100), 0.5 nM Europium-anti-phosphotyrosine (PT66) (Perkin Elmer, catalog number AD0068/AD0069), 10 mM EDTA). […] Kinase activity is calculated by subtracting the ratio obtained in the presence of a positive control inhibitor (1 μM staurosporine) from the ratio obtained in the presence of vehicle. The ability of a test compound to inhibit this activity (or percentage inhibition) is determined as:
as §1
Dose dilution series were prepared for the compounds enabling the testing of dose-response effects in the JAK1 assay and the calculation of the IC50 for the compound. Each compound is routinely tested at concentration of 20 μM followed by a 1/5 serial dilution, 10 points in a final concentration of 1% DMSO. […] The data are expressed as the average IC50 from the assays.

Assay [5] has as its system IFNα activation of STAT1 in PBMC. Nature of the assay: IFNα activation of STAT1 in PBMC. Format: cell-based. The settings on record: Homo sapiens; IFNα activation of STAT1 in PBMC; average IC50; read-out: IFNα signaling inhibitory potency IC50. As to the method: After these 2 wash steps the cell pellet is dissolved in ammonium chloride buffer (1.5 M NH4Cl, 100 mM NaHCO3 and 10 mM Na2.EDTA) for lysis of the red blood cells.
PBMC are treated with test compound for 30 min at 37° C. 5% CO2. […] After 30 min of test compound/vehicle pre-treatment, PBMC are stimulated for 30 min at 37° C. 5% CO2 with recombinant human IFNα (PeproTech, catalog number 300-02A) at a final concentration of 5 ng/mL by addition of 20 μL (10× concentrated) cytokine trigger to obtain a final volume of 200 μL per well.
After 30 min of cytokine stimulation, 200 μL of cell suspension is transferred to a 96-well V-bottom plate, centrifugated for 5 min at 1000 rpm to pellet cells, followed by removal of supernatant.
(§2) The percentage inhibition is calculated as: […]
RCLU(vehicle control): Relative Chemiluminescent signal determined in presence of vehicle and trigger
RCLU(test compound): Relative Chemiluminescent signal determined in presence of test compounds and trigger
RCLU(positive control): Relative Chemiluminescent signal determined in presence of positive control and trigger
PIN values are plotted for compounds tested in dose-response and average IC50 values are derived using GraphiPad Prism Software applying non-linear regression (sigmoidal) curve fitting.

Assay [6] concerns IL-12 activation of STAT4 in NK-92 cells. Description: IL-12 activation of STAT4 in NK-92 cells using AphaLISA SureFire technology. Format: cell-based. The settings on record: Homo sapiens, NK92; IL-12 activation of STAT4 in NK-92 cells, AlphaLISA SureFire; average IC50; read-out: IL12 pSTAT4 IC50. As to the method: IL-2 is added freshly to the medium with each medium refreshment step. Cells are cultured in a humidified incubator at 37° C. 5% CO2.
A subcultured fraction of NK-92 cells is washed once in culture medium without rhIL-2 the day before the experiment and incubated overnight in a culture flask.
5% CO2. […] NK-92 cells are triggered with rhIL-12 for 30 min at 37° C. 5% CO2.
After 30 min of cytokine stimulation the cells are lysed by addition of 15 μL 5× lysis buffer (supplemented with the AlphaLISA kit). After 10 minutes, plates are frozen at −80° C. overnight and the next day the levels of phospho-STAT4 are quantified using the AlphaLISA SureFire ULTRA p-STAT4 (Tyr693) (Perkin Elmer, Catalogue number ALSU-PST4-A10K) according to the manufacturers instructions. AlphaLISA signal (relative light units) is measured using an Envision (Perkin Elmer).
as §2
RLU(trigger/veh): Relative lumescent signal determined in presence of vehicle and trigger
RLU(test compound): Relative luminescent signal determined in presence of test compounds and trigger
PIN values are plotted for compounds tested in dose-response and IC50 values are derived using GraphPad Prism Software applying non-linear regression (sigmoidal) curve fitting. The data are expressed as the average IC50 from different experiments.
For orientation: Alpha assays give light when donor and acceptor beads are brought close together.

T3 sequence (P23458 866-1154): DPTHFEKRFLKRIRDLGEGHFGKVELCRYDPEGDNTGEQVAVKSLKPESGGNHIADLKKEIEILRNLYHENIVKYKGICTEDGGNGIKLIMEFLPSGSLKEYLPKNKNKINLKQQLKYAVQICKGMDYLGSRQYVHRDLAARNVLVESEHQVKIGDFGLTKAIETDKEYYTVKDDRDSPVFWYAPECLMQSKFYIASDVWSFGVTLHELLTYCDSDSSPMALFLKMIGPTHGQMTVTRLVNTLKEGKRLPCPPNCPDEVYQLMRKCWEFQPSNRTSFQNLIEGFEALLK
T1 sequence (O60674 808-1132): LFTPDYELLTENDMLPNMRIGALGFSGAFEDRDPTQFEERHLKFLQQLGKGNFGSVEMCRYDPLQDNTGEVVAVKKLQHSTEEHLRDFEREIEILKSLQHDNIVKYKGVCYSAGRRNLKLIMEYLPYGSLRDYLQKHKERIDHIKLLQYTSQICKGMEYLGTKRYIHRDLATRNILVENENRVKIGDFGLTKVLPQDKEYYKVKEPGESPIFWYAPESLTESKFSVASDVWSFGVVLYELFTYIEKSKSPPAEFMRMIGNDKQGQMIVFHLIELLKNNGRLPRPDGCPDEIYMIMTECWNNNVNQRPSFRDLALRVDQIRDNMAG
Chain of Recombinant human JAK3 catalytic domain (amino acids 781-1124) (P52333 781-1124): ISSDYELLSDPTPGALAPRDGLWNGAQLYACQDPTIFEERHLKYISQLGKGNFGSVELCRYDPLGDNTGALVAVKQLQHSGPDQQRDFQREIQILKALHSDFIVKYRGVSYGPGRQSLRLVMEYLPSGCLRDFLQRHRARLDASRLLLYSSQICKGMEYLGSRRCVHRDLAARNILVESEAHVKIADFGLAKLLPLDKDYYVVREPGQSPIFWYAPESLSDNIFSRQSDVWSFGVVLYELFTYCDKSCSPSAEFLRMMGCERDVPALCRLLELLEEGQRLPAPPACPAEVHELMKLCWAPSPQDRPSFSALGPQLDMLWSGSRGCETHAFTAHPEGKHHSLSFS

Take `Cc1cc(C#N)ncc1N(CCCO)c1cc(Nc2cc(N)ncn2)c2ncn(C)c2n1` [Compound 5, 5-[[7-(6-Amino-pyrimidin-4-ylamino)-3-methyl-3H-imidazo[4,5-b]pyridin-5-yl]-(3-hydroxy-propyl)-amino]-4-methyl-pyridine-2-carbonitrile]: the half-maximal inhibitory concentration (IC50) in assay [1] was found to be 0.00696 µM; in assay [2], 0.00095 µM; in assay [3], 0.329 µM; in assay [4], 0.0234 µM.

For `CC(C)[C@@H](Nc1cc(Nc2ccc(C(=O)N(C)C)cn2)c2ncn(C)c2n1)C(F)(F)F` [Compound 97, N,N-dimethyl-6-[[3-methyl-5-[[(1R)-2-methyl-1-(trifluoromethyl)propyl]amino]imidazo[4,5-b]pyridin-7-yl]amino]pyridine-3-carboxamide], the IC50 in assay [1] was found to be 0.00629 µM; in assay [2], 0.00308 µM; in assay [3] it was 0.0364 µM; in assay [4], 0.0218 µM.

Take `C[C@H](C1CC1)N(C)c1cc(Nc2cc(N)ncn2)c2ncn(C)c2n1` [Compound 16, N7-(6-aminopyrimidin-4-yl)-N5-[(1R)-1-cyclopropylethyl]-N5,3-dimethyl-imidazo[4,5-b]pyridine-5,7-diamine]: the IC50 in assay [1] was 0.025 µM; in assay [2], 0.0134 µM; in assay [3], 0.221 µM; in assay [4] it was 0.071 µM.

For `Cc1cc(C#N)ncc1Oc1cc(Nc2ccc(CN(C)CCN(C)C)cn2)c2ncn(C)c2n1` [Compound 83, 5-[7-[[5-[[2-(dimethylamino)ethyl-methylamino]methyl]pyridin-2-yl]amino]-3-methylimidazo[4,5-b]pyridin-5-yl]oxy-4-methylpyridine-2-carbonitrile formate salt], the half-inhibitory concentration (IC50) in assay [1] came out at 0.0271 µM; in assay [5], 0.137 µM; in assay [2], 0.0163 µM; in assay [4], 0.278 µM; in assay [6] it was 0.987 µM.

In the case of `Cc1cc(C#N)ncc1Oc1cc(Nc2ccc(C(=O)NCC(C)O)nc2)c2ncn(C)c2n1` (centres unmarked) [Compound 30, 5-[5-(6-Cyano-4-methyl-pyridin-3-yloxy)-3-methyl-3H-imidazo[4,5-b]pyridin-7-ylamino]-pyridine-2-carboxylic acid (2-hydroxy-propyl)-amide], the IC50 in assay [1] came out at 0.777 µM; in assay [2], 0.0557 µM; in assay [4] it was 0.399 µM.

Turning to `Cc1cc(C#N)ncc1Oc1cc(Nc2ccc(N3CC(CN(C)C)C3)nn2)c2ncn(C)c2n1` [Compound 40, 5-{7-[6-(3-Dimethylaminomethyl-azetidin-1-yl)-pyridazin-3-ylamino]-3-methyl-3H-imidazo[4,5-b]pyridin-5-yloxy}-4-methyl-pyridine-2-carbonitrile], the IC50 in assay [5] worked out at 0.115 µM; in assay [2] it was 0.00969 µM; in assay [6], 3.53 µM.

`Cc1cc(C#N)ncc1Oc1cc(Nc2ccc(C(=O)N3C[C@@H](C)O[C@@H](C)C3)cn2)c2ncn(C)c2n1` [Compound 148, 4-methyl-5-[3-methyl-7-[[5-[rac-(2R,6S)-2,6-dimethylmorpholine-4-carbonyl]pyridin-2-yl]amino]imidazo[4,5-b]pyridn-5-yl]oxypyridine-2-carbonitrile]: the IC50 was 0.142 µM in assay [5], 0.00208 µM in assay [2] and 0.16 µM in assay [6].

Take `COC1CN(C(=O)c2ccc(Nc3cc(Oc4cnc(C#N)cc4C)nc4c3ncn4C)nc2)C1` [Compound 103, 5-[7-[[5-(3-methoxyazetidine-1-carbonyl)-2-pyridyl]amino]-3-methyl-imidazo[4,5-b]pyridin-5-yl]oxy-4-methyl-pyridine-2-carbonitrile]: the IC50 is 0.068 µM in assay [5], 0.00273 µM in assay [2] and 0.0635 µM in assay [6].

Take `Cc1cc(C#N)ncc1Oc1cc(Nc2ccc(N3C[C@@H](C)O[C@@H](C)C3)nn2)c2ncn(C)c2n1` [Compound 43, (±)-5-{7-[6-((2R,6S)-2,6-Dimethyl-morpholin-4-yl)-pyridazin-3-ylamino]-3-methyl-3H-imidazo[4,5-b]pyridin-5-yloxy}-4-methyl-pyridine-2-carbonitrile]: the figures for the IC50 in assay [5], in assay [2] and in assay [6] were 0.07 µM, 0.00158 µM and 0.049 µM, respectively.

As for `Cc1cc(C#N)ncc1Oc1cc(Nc2ccc(C(=O)N3CC[C@@H](N(C)C)C3)cn2)c2ncn(C)c2n1` [Compound 107, 5-[7-[[5-[(3R)-3-(dimethylamino)pyrrolidine-1-carbonyl]pyridin-2-yl]amino]-3-methylimidazo[4,5-b]pyridin-5-yl]oxy-4-methylpyridine-2-carbonitrile], the IC50 in assay [5] is 0.11 µM; in assay [2], 0.00544 µM; in assay [6], 0.622 µM.

For the compound `Cc1cc(C#N)ncc1Oc1cc(Nc2ccc(C(=O)N3C[C@@H](O)[C@H](N(C)C)C3)cn2)c2ncn(C)c2n1` [Compound 153, 5-{7-[5-((3R,4R)-3-Dimethylamino-4-hydroxy-pyrrolidine-1-carbonyl)-pyridin-2-ylamino]-3-methyl-3H-imidazo[4,5-b]pyridin-5-yloxy}-4-methyl-pyridine-2-carbonitrile], the IC50 in assay [5] came to 0.234 µM; in assay [2], 0.00183 µM; in assay [6], 7.58 µM.

One may read the IC50 as the concentration needed to halve the response being measured.
